Measured values: patent publication USRE42700E1, “Induction of apoptosis in cancer cells” (Sanford-Burnham Medical Research Institute, priority 2001, dated 2011)

Experiments:
cancer cells = experiment: mitochondrial membrane potential (Δψm) using Rh123; format: cell-based; settings: 10^−6 M
[1] = tested on: mouse mammary adenocarcinoma 16/C; experiment: mouse mammary adenocarcinoma 16/C in syngeneic female C3H mice
Description: The ability of 3-Cl-AHPC to inhibit the in vivo growth of breast carcinoma cells was tested using syngeneic mouse mammary and human breast adenocarcinoma SCID xenograft models.

[2] = tested on: caspases in patient leukemic cells; experiment: caspase activation in patient leukemic cells; format: cell-based, human; settings: 1 μM
Description: Activation of caspases-1, -2, -3, -6, -8 and -9 was assessed using a caspase activation kit.

[3] = total dose 44 mg/kg, days 1-4, 6-8
[4] = total dose 89 mg/kg, days 1-4, 6-8
[5] = total dose 178 mg/kg, days 1-4, 6, 8

For `O=C(O)/C=C/c1ccc(-c2ccc(O)c(C34CC5CC(CC(C5)C3)C4)c2)c(Cl)c1` [Example 3-Cl-AHPC, (E)-4-[3-(1-Adamantyl)-4-hydroxyphenyl]-3-chlorocinnamic acid], the “percentage of cells with Δψm loss” value (cancer cells) was “significant increases in the percentage of cells with Δψm loss”, the “inhibition of tumor growth” value ([1]; T/C=20%) was 80% and the “toxicity as evidenced by weight loss of the mice” value ([1]; compared to AHPN) was “minimal toxicity”. For the same molecule, the “% body wt. loss” value [1, 3] was 4%, the Drug deaths [1, 3] was 0/5 and the T/C % [1, 3] was over 100%. For the same molecule, the “% body wt. loss” value [1, 4] was −3%, the Drug deaths [1, 4] was 0/5 and the T/C % [1, 4] was 47%. The “% body wt. loss” value [1, 5] was −4%, the Drug deaths [1, 5] was 0/5 and the Log cell kill [1, 5] was 0.9. The T/C % [1, 5] was 20%, the “activation of caspase-2” value [2] was 6 fold and the “activation of caspase-5” value [2] was “two-fold”. For the same molecule, the “activation of caspase-6” value [2] was 4 fold, the “activation of caspase-8” value [2] was 4 fold and the “activation of caspase-9” value [2] was “two-fold”. For the same molecule, the “activation of caspase-3” value ([2]; 24 hours) was 8 fold and the “activation of caspase-3” value ([2]; 48 hours) was 14 fold.
